# “Also recorded” adds a separate entry of the source. Read-outs that look alike come from different tables or passages of the source. Marks after values point to notes of the source that are not given here.
# Key:
# [1] = CPT-11 metabolite formed by hepatic cytochrome P-450 3A; cited from earlier work
# [2] = test system: ileal cells; assay type: in vitro ADME, hamster
# Procedure: (§1) The other drugs were dissolved in distilled water. […] DNP-SG was made from glutathione and CDNB (1-chloro-2,4-dinitro benzene) chemically. All other reagents were of analytical grade. Adult male Golden Syrian hamsters (6-8 weeks age), whose model presents a bile acid profile similar to that observed in human (28), were used.
# (§2) Intestinal cells were isolated as previously described (28, 29). Briefly, male hamsters were anesthetized with sodium pentobarbital (Nembutol 70 mg/kg body weight). The entire intestine was removed. The intestinal lumen was washed with 37° C. Hank's solution. Sacs of the ileum (12.5 cm from cecum) and jejunum (remaining small intestine) were rinsed, as well as the intestinal sacs of the anal site of small intestine (12.5 cm from cecum) and oral site (the other small intestine). The sacs were rinsed with oxygenated buffer solution containing sodium citrate (96 mM NaCl, 1.5 mM KCl, 5.6 mM KH2PO4, 27 mM sodium citrate, pH 7.3), and incubated for 10 min in the same buffer at 37° C. The sacs were then emptied, filled with oxygenated buffer solution containing EDTA (140 mM NaCl, 16 mM Na2HPO4, 2 mM EDTA, 0.5 mM dithiothreitol, pH 7.3), incubated for 10 min at 37° C. Then each sac was placed onto a petri dish and gently vortexed for 1 min. The buffer containing intestinal cells was recovered in 50 mL of Hanks' solution, washed twice and adjusted at 10^6 cells/ml in Hanks' medium (cellular stock solution containing 0.5% bovine serum albumin, pH 7.4).
# (§3) The cellular suspension of 0.95 ml was incubated for 15 min in a 37° C. water bath with stirring. Uptake was started by the addition of 0.05 ml PBS (at pH 3 or 9) containing labeled SN-38 or CPT-11 at 37° C. At various time intervals, 100 μL, sample aliquots were diluted into 3 mL of Hank's medium at 4° C. to stop the uptake. The stop solution containing the cells was filtered through a glass microfiber filter (Glass Fiber Filter Circles G4, Fisherbrand, Pa.) under vacuum (20 psi). The cells were washed once with 5 mL of 0.5% bovine serum albumin-containing Hanks' medium (4° C.) and once with 20 mL of Hanks' solution (4° C.). The filters were placed in a vial containing 4 mL of scintillation liquid (Ultra Gold, Packard, Conn.) and the radioactivity was counted in a β scintillation counter (LS3801, Beckman, Md.).
# (§4) The effect of the metabolic inhibitor, 2,4 dinitrophenol (1 mM), was studied by adding this agent to the cells 3 min prior to either ^14C-CPT-11 or ^14C-SN-38 (2 μM). The effect of 20 mM of taurocholic acid (TCA) on the uptake of both CPT-11 and SN-38 was investigated following overnight incubation of ^14C-CPT-11 (20 μM) and ^14C-SN-38 (2 μM) in Hank's solution, at pH 7.4 and in the presence and absence of TCA. The effect of 200 μM of DNP-SG or SN-38-Glu was also studied by adding these agents to the cell preparation 7 min prior to either ^14C-CPT-11 (20 μM) and ^14C-SN-38 (2 μM).
# (§5) The initial rate of uptake of CPT-11 or SN-38 was derived from the linear regression analysis of the respective regression line obtained from the plot of the uptake as a function of time. The initial rates of uptake were plotted against the corresponding concentration. The data were fitted by least-squares nonlinear regression analysis (SigmaStat, Jandel Scientific, CA), using the equation V=(Vmax·S)/(Km+S)+Kd·S where V represents the initial rate of uptake. Vmax is the maximum rate of uptake, Km is the apparent Michaelis constant, Kd is the rate of diffusion and S is the concentration of CPT-11 or SN-38.
# [3] = test system: isolated intestinal cells from jejunum; assay type: in vitro ADME, hamster
# Procedure: as §1, §2, §3, §4, §5
# [4] = test system: intestinal cells from whole small-intestine; assay: Uptake of 14C-labeled CPT-11 and SN-38 by intestinal cells, regions combined or not distinguished (TCA, pH, bicarbonate effects); conditions: for uptake rate of the lactone compared with the carboxylate form: cells from both intestinal regions; for saturability of the uptake (predominant component): SN-38 concentrations lower than 2 μM
# Procedure: By adding the drugs to Hank's solution containing intestinal cells from whole small-intestine, uptake studies were performed.
# as §2, §3, §4
# The effect of physiologic pH on the initial intestinal uptake rate of CPT-11 and SN-38 was investigated following overnight incubation of ^14C-CPT-11 (20 μM) and ^14C-SN-38 (2 μM) in phosphate buffered saline at pH 6.2, 6.8, 7.4 and 8, respectively.
# as §5
# [5] = assay type: physicochemical; conditions: 1,000-molecular weight cut-off membrane
# Description: Monomers were separated from micellar aggregates by ultrafiltration through a 1000-molecular weight cut-off membrane (YM1) as described in Materials and Methods. Values are the monomeric forms of the indicated metabolites, expressed as a percentage (%) of the concentration of the initial solution before ultrafiltration. Comparison between TCA and control was estimated by Mann-Whitney test. […] Abbreviations used: CPT lactone (CPT lact.); CPT carboxylate (CPT carb.); SN-38 lactone (SN lact.); and SN-38 carboxylate (SN carb.).
# [6] = cited from earlier work
# [7] = cited from earlier work; remark: listed apart in the source
# [8] = bile of two men treated by cisplatin who received CPT-11 intravenously; cited from earlier work
# [9] = bile acid micelles; cited from earlier work
# [10] = 20 μM 14C-CPT-11, 2 μM 14C-SN-38
# [11] = % of control, inhibitor 1 mM added 3 min before [14C]CPT-11 (20 μM), n=5
# [12] = % of control, inhibitor 1 mM added 3 min before [14C]SN-38 (2 μM), n=5
# [13] = % of control, inhibitor 200 μM added 7 min before [14C]CPT-11 (20 μM), n=5
# [14] = % of control, inhibitor 200 μM added 7 min before [14C]SN-38 (2 μM), n=5
smiles,measurement,setting,value
CCc1c2c(nc3ccc(OC(=O)N4CCC(NCCCCC(=O)O)CC4)cc13)-c1cc3c(c(=O)n1C2)COC(=O)C3(O)CC (stereo not drawn) [7-ethyl-10-[4-N-(5-aminopentanoic acid)-1-piperidino]carbonyloxycamptothecin],antitumor activity weaker than SN-38,[1],500 fold
CCc1c2c(nc3ccc(OC(=O)N4CCC(N5CCCCC5)CC4)cc13)-c1cc([C@@](O)(CC)C(=O)O)c(CO)c(=O)n1C2 [CPT-11 carboxylate],Km,"[2]; ileum, fit V=(Vmax·S)/(Km+S)+Kd·S, mean, read-out: Km (apparent Michaelis constant of uptake)",50.5 µM
same,Vmax (maximum rate of uptake),"[2]; ileum, nonlinear regression fit, mean",157.3 p mol · 10 ^6 cells^−1 · min^−1
same,Km,"[3]; jejunum, fit V=(Vmax·S)/(Km+S)+Kd·S, mean, read-out: Km (apparent Michaelis constant of uptake)",51.3 µM
same,Vmax (maximum rate of uptake),"[3]; jejunum, nonlinear regression fit, mean",146.9 p mol · 10 ^6 cells^−1 · min^−1
same,transport mechanism in intestinal cells,[4],actively absorbed
CCc1c2c(nc3ccc(OC(=O)N4CCC(N5CCCCC5)CC4)cc13)-c1cc3c(c(=O)n1C2)COC(=O)[C@]3(O)CC [CPT-11 lactone],transport mechanism in intestinal cells,[4],passively transported
same,uptake rate of the lactone compared with the carboxylate form,[4]; [10],more rapidly taken up; also recorded: several times greater
same,Kd lower than that of SN-38 lactone,[4]; jejunal and ileal cells,1.8-2.5 fold
same,saturability of the uptake (predominant component),[4]; jejunal and ileal cells,non-saturable
same,effect of TCA on % monomer concentration / association to TCA micelles,[5],significantly decreased
"CCc1c2c(nc3ccc(OC(=O)N4CCC(N5CCCCC5)CC4)cc13)-c1cc3c(c(=O)n1C2)COC(=O)[C@]3(O)CC.Cl [CPT-11, (4S)-4,11-diethyl-4-hydroxy-9-[(4-piperidinopiperidino)carbonyloxy]1H-pyrano [3′,4′:6,7] indolizino[1,2-b]quinoline-3,14(4 h, 12H)dione hydrochloride]",initial uptake rate at acidic pH (pH 6.2 and 6.8) versus neutral or alkaline pH (pH 7.4 and 8),[4],several times greater
same,initial uptake rate in the presence of 20 mM TCA,"[4]; cells from jejunum and ileum combined, 14C-CPT-11 20 μM, 14C-SN-38 2 μM, pH 7.4, mean±SD, n=5",48.5±10.8 % of control without TCA
same,decrease of the uptake rate at a pH greater than 6.8,"[4]; pH 6.2 to 8, 20 μM 14C-CPT-11, 2 μM 14C-SN-38",around 65%
same,uptake when HEPES of the Hank's buffer was replaced by sodium bicarbonate,[4]; pH adjusted to greater than 7,decreased
same,share in lactone form at pH 7.4,[6],13%
same,incidence of grade 4 diarrhea,[7]; before adoption of loperimide therapy,17%
same,incidence of grade 4 diarrhea,[7]; following adoption of an aggressive loperimide therapy,5%
same,share of the biliary content,[8],75.6-91.9%
"N[C@@H](CCC(=O)N[C@@H](CSc1ccc([N+](=O)[O-])cc1[N+](=O)[O-])C(=O)NCC(=O)O)C(=O)O [DNP-SG, 2,4-dinitrophenyl-S-glutathione]","initial uptake rate of CPT-11 carboxylate, ileum",[2],105.8%
same,"initial uptake rate of SN-38 carboxylate, ileum",[2],28.5* %
same,"initial uptake rate of CPT-11 carboxylate, jejunum",[3],103.2%
same,"initial uptake rate of CPT-11 lactone, jejunum",[3],105.4%
same,"initial uptake rate of SN-38 carboxylate, jejunum",[3],32.0* %
same,"initial uptake rate of SN-38 lactone, jejunum",[3],78.8%
same,effect of the added agent on the uptake rate of SN-38 lactone,[4],not significantly affected
same,effect of the added agent on the uptake of CPT-11 carboxylate,[4]; intestinal region not given,remained unchanged
same,effect of the added agent on the uptake rate of CPT-11 lactone,[4]; intestinal region not given,not significantly affected
"O=[N+]([O-])c1ccc(O)c([N+](=O)[O-])c1 [Dinitrophenol, 2,4-dinitrophenol]","initial uptake rate of CPT-11 carboxylate, ileum",[2]; [11],29.2%
same,"initial uptake rate of CPT-11 lactone, ileum",[2]; [11],105.5%
same,"initial uptake rate of SN-38 carboxylate, ileum",[2]; [12],30.8%
same,"initial uptake rate of SN-38 lactone, ileum",[2]; [12],134.9%
same,"initial uptake rate of CPT-11 carboxylate, jejunum",[3]; [11],22.6%
same,"initial uptake rate of CPT-11 lactone, jejunum",[3]; [11],94.1%
same,"initial uptake rate of SN-38 carboxylate, jejunum",[3]; [12],25.5%
same,"initial uptake rate of SN-38 lactone, jejunum",[3]; [12],96.1%
same,effect of the added agent on the uptake rate of CPT-11 lactone,[4]; intestinal region not given,not significantly affected
same,effect of the added agent on the uptake rate of SN-38 lactone,[4]; intestinal region not given,not significantly affected
"CCc1c2c(nc3ccc(O[C@@H]4O[C@H](C(=O)O)[C@@H](O)[C@H](O)[C@H]4O)cc13)-c1cc3c(c(=O)n1C2)COC(=O)[C@]3(O)CC [SN38-Glu, SN-38 β-glucuronide]","initial uptake rate of CPT-11 carboxylate, ileum",[2]; [13],93.9%
same,"initial uptake rate of SN-38 carboxylate, ileum",[2]; [14],28.9* %
same,"initial uptake rate of CPT-11 carboxylate, jejunum",[3]; [13],108.9%
same,"initial uptake rate of CPT-11 lactone, jejunum",[3]; [13],88.9%
same,"initial uptake rate of SN-38 carboxylate, jejunum",[3]; [14],40.1* %
same,"initial uptake rate of SN-38 lactone, jejunum",[3]; [14],54.3%
same,effect of the added agent on the uptake of CPT-11 carboxylate,[4]; intestinal region not given,remained unchanged
same,effect of the added agent on the uptake rate of CPT-11 lactone,[4]; intestinal region not given,not significantly affected
same,effect of the added agent on the uptake rate of SN-38 lactone,[4]; intestinal region not given,not significantly affected
same,share of the biliary content,[8],7.3-18.9%
CCc1c2c(nc3ccc(O)cc13)-c1cc3c(c(=O)n1C2)COC(=O)[C@]3(O)CC [SN-38 lactone],transport mechanism in intestinal cells,[4],passively transported
same,uptake rate of the lactone compared with the carboxylate form,[4]; [10],more rapidly taken up; also recorded: several times greater
same,saturability of the uptake (predominant component),[4]; jejunal and ileal cells,mostly non-saturable
same,effect of TCA on % monomer concentration / association to TCA micelles,[5],significantly decreased
CC(C)CCC[C@@H](C)[C@H]1CC[C@H]2[C@@H]3CC=C4C[C@@H](O)CC[C@]4(C)[C@H]3CC[C@]12C [cholesterol],percentage of the monomer concentration (comparison values),[9],3%
CCCCCCCC/C=C\CCCCCCCC(=O)O [oleic acid],percentage of the monomer concentration (comparison values),[9],2.3%
